What was measured:
occludin = test: Immunofluorescence microscopy of tight junction-related protein occludin in intestinal epithelial wall model (DSS-treated Caco-2); assay type: cell-based, human; conditions: 3% DSS, 24 hours; Chemical formula 1 0.3, 1 or 3 μM; 5-ASA 500 μM; FIG. 3
Method: (§1) Caco-2 cell line (human intestinal epithelial cell line) and RAW 264.7 cell line, which is macrophage cells derived from mouse, were cultured at 37° C., 5% CO2 conditions by using DMEM (Dulbecco's Modified Eagle Medium, #11995065, Gibco) containing 10% FBS (fetal bovine serum, #16000044, Gibco) and 1% streptomycin/penicillin (#15140122, Gibco). For culturing the cells, the medium exchange was carried out every 2 to 3 days, and, once the cells are grown to the level of 80% in cell culture dish (#353003, Falcon), they were maintained by subculture.
(§2) The Caco-2 cells were adjusted to have density of 2×10^5 cells/ml. Suspension of the cells (0.5 ml) was aliquoted in apical side membrane phase of a transwell insert 12-well plate. To the basolateral side phase, 1.5 ml of culture medium were added. While replacing the medium with fresh one, once per 2 or 3 days, culture was continued for 21 days approximately, i.e., till to have cell division and suitable TEER (transepithelial electrical resistance) value of monolayer. […]
(§3) Thereafter, the cells were washed 3 times with 1×PBS for 5 minutes and treated for 5 minutes with Hoechst 33342 for staining the nucleus. […] After the mounting with ProLong™ Gold Antifade reagent, it was examined by confocal fluorescence microscopy.

ZO-1 = test: Immunofluorescence microscopy of tight junction-related protein ZO-1 in intestinal epithelial wall model (DSS-treated Caco-2); assay type: cell-based, human; conditions: 3% DSS, 24 hours; Chemical formula 1 0.3, 1 or 3 μM; 5-ASA 500 μM; FIG. 2
Method: as §1, §2, §3

[1] = system: animal model of DSS-induced inflammatory bowel disease; test: Therapeutic effect in mouse model of DSS-induced inflammatory bowel disease (body weight, DAI, colon length); assay type: in vivo, mouse (C57BL/6); conditions: 5-ASA 100 mg/kg oral; for DAI / Colon length: Day 8, mouse, 2.5% DSS, Compound 1 2 mg/kg intraperitoneal; for DAI: 7 days, DSS group 11.75 ± 0.15; for Colon length: DSS group 4.9, normal control 8.4; for rate of body weight loss compared to group administered with DSS: mouse, 2.5% DSS 7 days, Chemical formula 1 2 mg/kg intraperitoneal, once a day for 7 days, FIG. 6
Text: As a mouse with induced inflammatory bowel disease, 6 week-old C57BL/6 was used, and the animal was induced to have the disease by administration of DSS (dextran sulfate sodium, MW 36000 to 50000, MP Biomedicals), Test groups were divided into the followings; normal control which has not been treated with any chemical (3 animals); group administered with DSS (6 animals); group administered with DSS+5-ASA (5-aminosalicylic acid, Sigma) (6 animals); and group administered with DSS+compound represented by Chemical formula 1 of the present invention (6 animals).
Inflammatory bowel disease is generally evaluated in terms of the disease activity index (DAI) based on clinical signs like body weight loss, diarrhea, and bloody feces. DAI is measured by giving a score to each of body weight loss rate, state of feces, and state of bloody feces (Table 1).
In this example, evaluation was made for 7 days for each test group. For all test groups except normal control, 100 ml of drinking water with 2.5% DSS were supplied for 7 days, while the water exchange was made every 2 days, to induce inflammatory bowel disease. The group administered with 5-ASA was orally administered, once a day for 7 days, with 100 mg/kg 5-ASA dispersed in 2.5% CMC (carboxymethylcellulose sodium, Sigma). The compound represented by Chemical formula 1 of the present invention (2 mg/kg) was administered via intraperitoneal injection, once a day for 7 days. From the first day of test, mouse of each test group was weighed to measure the rate of body weight loss. […] However, the weight loss was observed from Day 5 and thereafter in every test group induced to have inflammatory bowel disease by a treatment with DSS.
Evaluation of disease activity index (DAI) was also carried out, once a day from the first day of the test. From all test groups having inflammatory bowel disease induced by DSS treatment except normal control which has not been treated with any chemical, higher DAI was shown from Day 5 and thereafter.
Sum of each item analyzed on Day 8 based on the evaluation index of Table 1 was described as disease activation index (DAI) in Table 2.
With regard to the inflammatory response to inflammatory bowel disease, level of the response can be evaluated in terms of the decrease in colon length. Mouse in each test group was sacrificed on Day 8 and the colon was removed from the animal. Colon length was measured from the removed colon.

claudin1 = test: Immunofluorescence microscopy of tight junction-related protein claudin1 in intestinal epithelial wall model (DSS-treated Caco-2); assay type: cell-based, human; conditions: 3% DSS, 24 hours; Chemical formula 1 0.3, 1 or 3 μM; 5-ASA 500 μM; FIG. 4
Method: as §1, §2, §3

| Structure (SMILES) | expression amount of occludin compared to DSS model group (occludin) | expression amount of ZO-1 compared to DSS model group (ZO-1) | DAI [1] | Colon length [1] [cm] | rate of body weight loss compared to group administered with DSS [1] | expression amount of claudin1 compared to DSS model group (claudin1) |
| --- | --- | --- | --- | --- | --- | --- |
| COC(=O)C[C@H](OC(=O)/C=C/c1ccc(O)c(O)c1)c1ccc(O)c(O)c1 [Compound 1, 3-[3,4-dihydroxyphenyl]acrylic acid 1-[3,4-dihydroxyphenyl]-2-methoxycarbonylethyl ester] | statistically significantly higher | statistically significantly higher | 8.75 ± 0.21 | 7.4 | lower rate of body weight loss | statistically significantly higher |
| Nc1ccc(O)c(C(=O)O)c1 [Compound 5-ASA, 5-aminosalicylic acid, reference compound] | statistically significantly higher | statistically significantly higher | 10.67 ± 0.19 | 5.7 | lower rate of body weight loss | statistically significantly higher |

From patent US20240216317A1, “COMPOSITION FOR PREVENTING, AMELIORATING OR TREATING INFLAMMATORY BOWEL DISEASE COMPRISING COMPOUND ISOLATED FROM ISODON EXCISUS AS EFFECTIVE COMPONENT” (HEALINNOLS INC., priority 2022, published 2024)
